# Measured values as given in US10245239B2, “Astaxanthin anti-inflammatory synergistic combinations” (Lycored Ltd., priority 2013, dated 2019).
# Key:
# [1] = tested on: LPS-stimulated macrophages; assay: TNF-alpha production by LPS-stimulated macrophages (ELISA); type: cell-based, ICR mice; details: astaxanthin alone, FIG. 3
# Method: (§1) 100 U/ml penicillin. […] streptomycin (Beit-Haemek, Israel).
# Concentrations of TNF-alpha in cell culture supernatants were quantified by ELISA kits (Biolegend, SanDiego, Calif., USA).
# (§2) The anti-inflammatory effect was detected by inhibition of NO production and of TNF alpha production by LPS-stimulated macrophages.
# [2] = tested on: LPS-stimulated macrophages; assay: NO production by LPS-stimulated macrophages; type: cell-based, ICR mice; details: astaxanthin alone, FIG. 1
# Method: as §1, §2
# NO levels in supernatants of cell cultures were determined by assaying nitrite levels using Griess reagent and sodium nitrite as a standard.
structure (smiles),measurement,setting,value
CC1=C(/C=C/C(C)=C/C=C/C(C)=C/C=C/C=C(C)/C=C/C=C(C)/C=C/C2=C(C)C(=O)[C@@H](O)CC2(C)C)C(C)(C)C[C@H](O)C1=O [astaxanthin],inhibition of TNF alpha production,[1],in a dose dependent manner
same,inhibition of NO production,[2],in a dose dependent manner
